Where two headings read alike, the source gives them in different places.
Legend:
[1] = test system: ZIKV-RLuc (Cambodian strain FSS13025); assay: microbe, parasite or virus in culture; type: cell-based, Zika virus
[2] = test system: Vero cells
[3] = Zika virus, Vero, read-out: Log AC50 (M) (converted)

SMILES | CC-v2 (curve class classification v2 of the dose response curve) [1] | Efficacy (difference between neutral response and maximum compound response) [1] | Max Resp (difference between neutral response and compound response for highest compound concentration) [1] | AC50 ([1]; Zika virus, Vero) [M] | AC50 [1, 3] [M] | Log AC50 (M) [2] [M] | AC50 [2] [µM] | AC50 [1] [M] | Log AC50 (M) [1] | Curve class [1] | Efficacy [1] | Emax ([1]; Zika virus, Vero, read-out: Max response) [%] | Efficacy (difference between neutral response and maximum compound response) [2] | Max Resp (difference between neutral response and compound response for highest compound concentration) [2]
Cc1nc(Nc2ncc(C(=O)Nc3c(C)cccc3Cl)s2)cc(N2CCN(CCO)CC2)n1 [NCGC00181129-05] | -1.1 | -120.53 | -95.603 | 8.51e-08 | 8.51e-08 | -7.0699 |  |  |  |  |  |  |  | 
COC(=O)[C@]12CCC(C)(C)C[C@H]1[C@H]1C(=O)C=C3[C@@]4(C)C=C(C#N)C(=O)C(C)(C)[C@@H]4CC[C@@]3(C)[C@]1(C)CC2 [NCGC00186460-02] | -1.1 | -99.409 | -99.593 | 3.69e-07 | 3.69e-07 | -6.4327 | 0.369 |  |  |  |  |  |  | 
NC1(c2ccc(-c3nc4ccn5c(=O)[nH]nc5c4cc3-c3ccccc3)cc2)CCC1 [NCGC00186465-01] | -2.1 | -117.339 | -99.979 | 1.85e-05 | 1.85e-05 | -4.7327 | 18.5 |  |  |  |  |  |  | 
NC1(c2ccc(-c3nc4ccn5c(=O)[nH]nc5c4cc3-c3ccccc3)cc2)CCC1 [NCGC00186465-04] | -2.1 | -108.058 | -98.999 |  |  | -4.6827 |  | 2.08e-05 | -4.6827 |  |  |  |  | 
C=CC(=O)N1CCC[C@@H](n2nc(-c3ccc(Oc4ccccc4)cc3)c3c(N)ncnc32)C1 [NCGC00187912-02] |  | -91.422 | -83.345 | 9.28e-06 | 9.27e-06 | -5.0327 | 9.28 |  |  |  |  |  |  | 
O=C(NCc1ccccc1)c1csc(Nc2ccncn2)n1 [NCGC00187983-01] | -2.1 | -99.244 | -100.568 | 1.47e-05 | 1.47e-05 | -4.8327 | 14.7 |  |  |  |  |  |  | 
CC(NCc1ccc2c(c1)[nH]/c(=N\C(=O)c1ccc(-c3cn[nH]c3)s1)n2CC(C)(C)O)C(C)(C)C (stereo not drawn) [NCGC00188382-05] | -1.1 | -97.056 | -99.599 | 1.47e-06 | 1.47e-06 | -5.8327 | 1.47 |  |  |  |  |  |  | 
ClC1=C(Cl)[C@]2(Cl)[C@@H]3[C@@H]4C[C@@H]([C@H]5O[C@@H]45)[C@@H]3[C@@]1(Cl)C2(Cl)Cl [NCGC00244579-01] | -3 | -117.983 | -96.11 | 7.59e-05 | 7.59e-05 | -4.1199 | 75.9 |  |  |  |  |  |  | 
CC(=O)O/N=C1\C(=O)N(Cc2cc(Cl)ccc2Cl)c2ccc(Cl)cc21 [NCGC00247668-01] | -2.1 | -136.639 | -99.757 | 1.65e-05 | 1.65e-05 | -4.7827 | 16.5 |  |  |  |  |  |  | 
N=c1c2c(-c3ccccc3)c(-c3ccccc3)n(Cc3ccccc3)c2ncn1C1CCC(O)CC1 (stereo not drawn) [NCGC00247785-05] | -1.1 | -97.244 | -99.645 | 4.96e-06 | 4.96e-06 | -5.3045 | 4.96 |  |  |  |  |  |  | 
COc1c(C)cnc(Cn2cnc3c(Cl)nc(N)nc32)c1C [NCGC00247877-01] | -1.2 | -34.341 | -31.198 | 1.85e-07 | 1.85e-07 | -6.7327 | 0.185 |  |  |  |  |  |  | 
CCNC(=O)c1noc(-c2cc(C(C)C)c(O)cc2O)c1-c1ccc(CN2CCOCC2)cc1 [NCGC00247878-08] | -2.3 | -68.402 | -90.15 | 3.69e-05 | 3.69e-05 | -4.4327 | 36.9 |  |  |  |  |  |  | 
CCNC(=O)c1cc2c(-c3cc(OCCN4CCCC4)c(Cl)cc3Cl)nc(N)nc2s1 [NCGC00247879-01] |  |  |  |  |  |  |  |  |  | 4 | -14.131 | 2.04 | -14.131 | 2.045
O=C(N[C@@H](c1ccccc1)[C@@H]1CCCCN1)c1cccc(C(F)(F)F)c1Cl [NCGC00247954-02] | -2.1 | -87.335 | -99.352 | 4.27e-05 | 4.27e-05 | -4.3699 | 42.7 |  |  |  |  |  |  | 
C1=C/COCc2cc(ccc2OCCN2CCCC2)Nc2nccc(n2)-c2cccc(c2)OCC/1 [NCGC00249346-02] | -1.1 | -91.692 | -99.088 | 1.17e-06 | 1.17e-06 | -5.9327 | 1.17 |  |  |  |  |  |  | 
CC(C)C[C@H](NC(=O)[C@H](CCc1ccccc1)NC(=O)CN1CCOCC1)C(=O)N[C@@H](Cc1ccccc1)C(=O)N[C@@H](CC(C)C)C(=O)[C@@]1(C)CO1 [NCGC00249613-01] | -1.1 | -103.056 | -99.72 | 2.33e-06 | 2.33e-06 | -5.6327 | 2.33 |  |  |  |  |  |  | 
CCN1CCN(CC(=O)Nc2ccc(-c3cccc4c(=O)cc(N5CCOCC5)oc34)c3sc4ccccc4c23)CC1 [NCGC00250387-03] | -2.4 | -68.382 | -59.211 | 2.33e-05 | 2.33e-05 | -4.6327 | 23.3 |  |  |  |  |  |  | 
CC(C)(C)OC(=O)Nc1ccc(-c2cc(C(=O)NCCCCCCC(=O)NO)no2)cc1 [NCGC00250390-04] | -2.2 | -83.763 | -67.554 | 2.09e-06 | 2.09e-06 | -5.6796 | 2.09 |  |  |  |  |  |  | 
CC[C@@H]1C(=O)N(C)c2cnc(Nc3ccc(C(=O)NC4CCN(C)CC4)cc3OC)nc2N1C1CCCC1 [NCGC00253438-01] | -1.1 | -120.006 | -99.011 | 2.33e-06 | 2.33e-06 | -5.6327 | 2.33 |  |  |  |  |  |  | 
NC(=O)C1(N2CCCCC2)CCN(CCCN2c3ccccc3CCc3ccc(Cl)cc32)CC1 [NCGC00253595-01] | -3 | -112.083 | -100.465 | 2.61e-05 | 2.61e-05 | -4.5827 |  |  |  |  |  |  |  | 
C/C=C(/C)C(=O)O[C@H]1C(C)=C2[C@H]([C@@H]1OC(=O)CCCCCCC)[C@@](C)(OC(C)=O)C[C@H](OC(=O)CCC)[C@@]1(O)[C@H]2OC(=O)[C@@]1(C)O [NCGC00261947-01] | -1.2 | -69.727 | -98.941 | 3.29e-06 | 3.29e-06 | -5.4827 | 3.29 |  |  |  |  |  |  | 
Cc1ccc(C(N)=O)cc1Nc1nccc(-c2cn(C(C)C)c3cnccc23)n1 [NCGC00263020-01] | -1.1 | -104.089 | -98.725 | 7.37e-06 | 7.37e-06 | -5.1327 | 7.37 |  |  |  |  |  |  | 
Cc1nc2cnc3ccc(C#Cc4cccnc4)cc3c2n1-c1ccc(C(C)(C)C#N)cc1 [NCGC00263088-01] | -1.1 | -103.241 | -92.032 | 5.85e-06 | 5.85e-06 | -5.2327 | 5.85 |  |  |  |  |  |  | 
COc1cc(OC2CCN(C)CC2)ccc1Nc1ncc2c(n1)n(C1CCCC1)c(=O)n2C [NCGC00263090-01] | -1.2 | -50.634 | -54.42 | 6.76e-06 | 6.76e-06 | -5.1699 | 6.76 |  |  |  |  |  |  | 

Source: article PMC8765781, “A platform of assays for the discovery of anti-Zika small-molecules with activity in a 3D-bioprinted outer-blood-retina model” (PLoS ONE, 2022)
